Experimental data: patent US9340590B2 (priority 2011, dated 2016)
Like-named read-outs stand apart in the source and are kept apart here. Positions of bridges follow the written chain, without caps; N, C: chain ends. Non-standard residues stand in square brackets, D forms with d. Residues, ends and D or L forms follow the SMILES beside them. 1Nal = N[C@@H](Cc1cccc2ccccc12)C(=O)O

Biological target: hNav1.7 (Homo sapiens, UniProt Q15858)
Experiment: cell-based

Sequence of hNav1.7 (Q15858 whole entry, looked up): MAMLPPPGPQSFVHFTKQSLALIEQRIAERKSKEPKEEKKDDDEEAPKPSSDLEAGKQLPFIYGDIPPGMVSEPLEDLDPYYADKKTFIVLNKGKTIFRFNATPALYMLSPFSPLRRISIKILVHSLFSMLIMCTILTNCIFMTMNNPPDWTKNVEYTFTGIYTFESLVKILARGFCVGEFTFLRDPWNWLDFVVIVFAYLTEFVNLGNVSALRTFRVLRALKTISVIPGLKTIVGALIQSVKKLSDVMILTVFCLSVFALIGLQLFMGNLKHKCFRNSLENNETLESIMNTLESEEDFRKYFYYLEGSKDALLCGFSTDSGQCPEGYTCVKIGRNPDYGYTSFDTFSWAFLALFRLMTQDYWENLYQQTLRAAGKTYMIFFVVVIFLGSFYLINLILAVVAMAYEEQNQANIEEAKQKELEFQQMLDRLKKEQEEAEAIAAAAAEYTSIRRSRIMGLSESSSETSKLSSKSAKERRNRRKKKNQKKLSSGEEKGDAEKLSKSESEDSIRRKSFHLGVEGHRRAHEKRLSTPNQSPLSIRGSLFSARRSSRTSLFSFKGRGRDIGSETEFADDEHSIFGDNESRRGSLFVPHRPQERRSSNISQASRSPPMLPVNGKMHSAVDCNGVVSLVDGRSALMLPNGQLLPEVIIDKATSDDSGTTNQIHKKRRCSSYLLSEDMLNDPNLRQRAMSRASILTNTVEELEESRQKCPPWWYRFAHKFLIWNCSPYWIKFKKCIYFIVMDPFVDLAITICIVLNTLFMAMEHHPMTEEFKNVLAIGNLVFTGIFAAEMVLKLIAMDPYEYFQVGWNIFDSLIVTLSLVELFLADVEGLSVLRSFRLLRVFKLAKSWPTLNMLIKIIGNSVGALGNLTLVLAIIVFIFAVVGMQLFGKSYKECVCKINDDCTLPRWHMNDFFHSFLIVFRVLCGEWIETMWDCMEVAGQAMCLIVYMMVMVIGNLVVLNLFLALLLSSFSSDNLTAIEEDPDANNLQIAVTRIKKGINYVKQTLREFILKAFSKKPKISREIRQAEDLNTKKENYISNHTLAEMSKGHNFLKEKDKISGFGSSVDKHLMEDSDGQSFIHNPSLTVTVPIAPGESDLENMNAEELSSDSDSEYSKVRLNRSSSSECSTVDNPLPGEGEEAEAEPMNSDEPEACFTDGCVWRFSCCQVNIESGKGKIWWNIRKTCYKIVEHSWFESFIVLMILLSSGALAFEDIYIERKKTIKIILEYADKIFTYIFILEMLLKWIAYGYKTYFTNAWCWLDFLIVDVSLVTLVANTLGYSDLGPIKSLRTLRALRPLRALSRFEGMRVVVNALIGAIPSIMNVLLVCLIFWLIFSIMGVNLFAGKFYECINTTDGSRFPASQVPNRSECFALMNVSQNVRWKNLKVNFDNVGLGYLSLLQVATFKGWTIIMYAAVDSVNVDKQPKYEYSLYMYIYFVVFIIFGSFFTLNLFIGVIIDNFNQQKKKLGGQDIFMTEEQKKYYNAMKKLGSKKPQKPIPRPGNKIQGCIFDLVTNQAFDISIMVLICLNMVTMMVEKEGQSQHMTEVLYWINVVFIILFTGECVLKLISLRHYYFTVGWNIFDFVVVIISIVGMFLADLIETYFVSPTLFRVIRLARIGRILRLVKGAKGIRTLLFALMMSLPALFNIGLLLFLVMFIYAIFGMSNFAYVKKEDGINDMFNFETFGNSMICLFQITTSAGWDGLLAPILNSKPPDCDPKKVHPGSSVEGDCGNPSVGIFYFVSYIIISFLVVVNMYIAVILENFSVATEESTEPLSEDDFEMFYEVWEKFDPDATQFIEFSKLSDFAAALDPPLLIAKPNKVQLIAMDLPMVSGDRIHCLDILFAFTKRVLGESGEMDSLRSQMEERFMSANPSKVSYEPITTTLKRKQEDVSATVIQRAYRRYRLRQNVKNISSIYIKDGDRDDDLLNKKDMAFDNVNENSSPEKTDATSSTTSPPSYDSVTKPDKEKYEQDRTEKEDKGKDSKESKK

Row | SMILES | IC50 (Nav1.7 Use IC50) [nM] | IC50 (read-out: Nav1.7 Use IC50) [nM]
1 | CC[C@H](C)[C@@H]1NC(=O)[C@@H]2CSSC[C@@H]3NC(=O)[C@H](C(C)C)NC(=O)[C@H](CC(C)C)NC(=O)[C@H](CC(N)=O)NC(=O)[C@@H]4CCCN4C(=O)[C@H](CCCNC(=N)N)NC(=O)[C@H](CSSC[C@H](NC(=O)[C@@H](N)CC(=O)O)C(=O)N[C@@H](CC(C)C)C(=O)NCC(=O)N[C@@H](Cc4ccccc4)C(=O)N[C@@H](CCSC)C(=O)N[C@@H](CCCNC(=N)N)C(=O)N[C@@H](CCCCN)C(=O)N2)NC(=O)[C@H](CSSC[C@@H](C(=O)N[C@@H](CCCCN)C(=O)N[C@@H](Cc2ccc(O)cc2)C(=O)N[C@H](C(=O)N[C@@H](Cc2ccccc2)C(N)=O)C(C)C)NC(=O)[C@H](Cc2c[nH]c4ccccc24)NC(=O)[C@H](CC(=O)O)NC(=O)[C@H](Cc2cnc[nH]2)NC(=O)[C@H]([C@@H](C)O)NC(=O)[C@H](CCCNC(=N)N)NC(=O)[C@H](CO)NC3=O)NC(=O)[C@H](CCCCN)NC(=O)[C@H](CC(=O)O)NC(=O)[C@H](CC(N)=O)NC(=O)[C@H](CC(=O)O)NC(=O)[C@@H]2CCCN2C1=O [[Asp28]GpTx-1(1-34)] (H-DCLGFMRKCIPDNDKCCRPNLVCSRTHDWCKYVF-NH2; disulfide 2-17, 9-23, 16-30) | 15 | –
2 | CC[C@H](C)[C@@H]1NC(=O)[C@@H]2CSSC[C@@H]3NC(=O)[C@H](C(C)C)NC(=O)[C@H](CC(C)C)NC(=O)[C@H](CC(N)=O)NC(=O)[C@@H]4CCCN4C(=O)[C@H](CCCNC(=N)N)NC(=O)[C@H](CSSC[C@H](NC(=O)[C@@H](N)CC(=O)O)C(=O)N[C@@H](CC(C)C)C(=O)NCC(=O)N[C@@H](Cc4ccccc4)C(=O)N[C@@H](CCSC)C(=O)N[C@@H](CCCNC(=N)N)C(=O)N[C@@H](CCCCN)C(=O)N2)NC(=O)[C@H](CSSC[C@@H](C(=O)N[C@@H](CCCCN)C(=O)N[C@@H](Cc2cccc4ccccc24)C(=O)N[C@H](C(=O)N[C@@H](Cc2ccccc2)C(N)=O)C(C)C)NC(=O)[C@H](Cc2c[nH]c4ccccc24)NC(=O)[C@H](CCCCN)NC(=O)[C@H](Cc2c[nH]cn2)NC(=O)[C@H]([C@@H](C)O)NC(=O)[C@H](CCCNC(=N)N)NC(=O)[C@H](CO)NC3=O)NC(=O)[C@H](CCCCN)NC(=O)[C@H](CC(=O)O)NC(=O)[C@H](CC(N)=O)NC(=O)[C@H](CC(=O)O)NC(=O)[C@@H]2CCCN2C1=O [[1-Nal32]GpTx-1(1-34)] (H-DCLGFMRKCIPDNDKCCRPNLVCSRTHKWCK[1Nal]VF-NH2; disulfide 2-17, 9-23, 16-30) | – | 4
3 | CC[C@H](C)[C@@H]1NC(=O)[C@@H]2CSSC[C@@H]3NC(=O)[C@H](C(C)C)NC(=O)[C@H](CC(C)C)NC(=O)[C@H](CC(N)=O)NC(=O)[C@@H]4CCCN4C(=O)[C@H](CCCNC(=N)N)NC(=O)[C@H](CSSC[C@H](NC(=O)[C@@H](N)CC(=O)O)C(=O)N[C@@H](CC(C)C)C(=O)NCC(=O)N[C@@H](C4CCCC4)C(=O)N[C@@H](CCSC)C(=O)N[C@@H](CCCNC(=N)N)C(=O)N[C@@H](CCCCN)C(=O)N2)NC(=O)[C@H](CSSC[C@@H](C(=O)N[C@@H](CCCCN)C(=O)N[C@@H](Cc2ccc(O)cc2)C(=O)N[C@H](C(=O)N[C@@H](Cc2ccccc2)C(N)=O)C(C)C)NC(=O)[C@H](Cc2c[nH]c4ccccc24)NC(=O)[C@H](CCCCN)NC(=O)[C@H](Cc2c[nH]cn2)NC(=O)[C@H]([C@@H](C)O)NC(=O)[C@H](CCCNC(=N)N)NC(=O)[C@H](CO)NC3=O)NC(=O)[C@H](CCCCN)NC(=O)[C@H](CC(=O)O)NC(=O)[C@H](CC(N)=O)NC(=O)[C@H](CC(=O)O)NC(=O)[C@@H]2CCCN2C1=O [[Cpg5]GpTx-1(1-34)] | – | 5
4 | CC[C@H](C)[C@@H]1NC(=O)[C@@H]2CSSC[C@@H]3NC(=O)[C@H](C(C)C)NC(=O)[C@H](CC(C)C)NC(=O)[C@H](CC(N)=O)NC(=O)[C@@H]4CCCN4C(=O)[C@H](CCCNC(=N)N)NC(=O)[C@H](CSSC[C@H](NC(=O)[C@@H](N)CC(=O)O)C(=O)N[C@@H](CC(C)C)C(=O)NCC(=O)N[C@@H](Cc4ccccc4)C(=O)N[C@@H](CCSC)C(=O)N[C@@H](CCCNC(=N)N)C(=O)N[C@@H](CCCCN)C(=O)N2)NC(=O)[C@H](CSSC[C@@H](C(=O)N[C@@H](CCCCN)C(=O)N[C@@H](Cc2ccc(O)cc2)C(=O)N[C@H](C(=O)N[C@@H](Cc2ccccc2)C(N)=O)C(C)C)NC(=O)[C@H](Cc2c[nH]c4ccccc24)NC(=O)[C@H](CCCCN)NC(=O)[C@H](Cc2c[nH]cn2)NC(=O)[C@H](CCCNC(=N)N)NC(=O)[C@H](CCCNC(=N)N)NC(=O)[C@H](CO)NC3=O)NC(=O)[C@H](CCCCN)NC(=O)[C@H](CC(=O)O)NC(=O)[C@H](CC(N)=O)NC(=O)[C@H](CC(=O)O)NC(=O)[C@@H]2CCCN2C1=O [[Arg26]GpTx-1(1-34)] (H-DCLGFMRKCIPDNDKCCRPNLVCSRRHKWCKYVF-NH2; disulfide 2-17, 9-23, 16-30) | – | 5
5 | CC[C@H](C)[C@@H]1NC(=O)[C@@H]2CSSC[C@@H]3NC(=O)[C@H](C(C)C)NC(=O)[C@H](CC(C)C)NC(=O)[C@H](CC(N)=O)NC(=O)[C@@H]4CCCN4C(=O)[C@H](CCCNC(=N)N)NC(=O)[C@H](CSSC[C@H](NC(=O)[C@@H](N)CC(=O)O)C(=O)N[C@@H](CC(C)C)C(=O)NCC(=O)N[C@@H](C(C)(C)C)C(=O)N[C@@H](CCSC)C(=O)N[C@@H](CCCNC(=N)N)C(=O)N[C@@H](CCCCN)C(=O)N2)NC(=O)[C@H](CSSC[C@@H](C(=O)N[C@@H](CCCCN)C(=O)N[C@@H](Cc2ccc(O)cc2)C(=O)N[C@H](C(=O)N[C@@H](Cc2ccccc2)C(N)=O)C(C)C)NC(=O)[C@H](Cc2c[nH]c4ccccc24)NC(=O)[C@H](CCCCN)NC(=O)[C@H](Cc2cnc[nH]2)NC(=O)[C@H]([C@@H](C)O)NC(=O)[C@H](CCCNC(=N)N)NC(=O)[C@H](CO)NC3=O)NC(=O)[C@H](CCCCN)NC(=O)[C@H](CC(=O)O)NC(=O)[C@H](CC(N)=O)NC(=O)[C@H](CC(=O)O)NC(=O)[C@@H]2CCCN2C1=O [[Tle5]GpTx-1(1-34)] | 23 | –
6 | CC[C@H](C)[C@@H]1NC(=O)[C@@H]2CSSC[C@@H]3NC(=O)[C@H](C(C)C)NC(=O)[C@H](CC(C)C)NC(=O)[C@H](CC(N)=O)NC(=O)[C@@H]4CCCN4C(=O)[C@H](CCCNC(=N)N)NC(=O)[C@H](CSSC[C@H](NC(=O)[C@@H](N)CC(=O)O)C(=O)N[C@@H](CC(C)C)C(=O)N[C@@H](CCCCN)C(=O)N[C@@H](Cc4ccccc4)C(=O)N[C@@H](CCSC)C(=O)N[C@@H](CCCNC(=N)N)C(=O)N[C@@H](CCCCN)C(=O)N2)NC(=O)[C@H](CSSC[C@@H](C(=O)N[C@@H](CCCCN)C(=O)N[C@@H](Cc2ccc(O)cc2)C(=O)N[C@H](C(=O)N[C@@H](Cc2ccccc2)C(N)=O)C(C)C)NC(=O)[C@H](Cc2c[nH]c4ccccc24)NC(=O)[C@H](CCCCN)NC(=O)[C@H](Cc2c[nH]cn2)NC(=O)[C@H]([C@@H](C)O)NC(=O)[C@H](CCCNC(=N)N)NC(=O)[C@H](CO)NC3=O)NC(=O)[C@H](CCCCN)NC(=O)[C@H](CC(=O)O)NC(=O)[C@H](CC(N)=O)NC(=O)[C@H](CC(=O)O)NC(=O)[C@@H]2CCCN2C1=O [SEQ ID NO: 39] (H-DCLKFMRKCIPDNDKCCRPNLVCSRTHKWCKYVF-NH2; disulfide 2-17, 9-23, 16-30) | – | 6
7 | CC[C@H](C)[C@@H]1NC(=O)[C@@H]2CSSC[C@@H]3NC(=O)[C@H](C(C)C)NC(=O)[C@H](CC(C)C)NC(=O)[C@H](CC(N)=O)NC(=O)[C@@H]4CCCN4C(=O)[C@H](CCCNC(=N)N)NC(=O)[C@H](CSSC[C@H](NC(=O)[C@@H](N)CC(=O)O)C(=O)N[C@@H](CC(C)C)C(=O)NCC(=O)N(C)[C@@H](CC(C)C)C(=O)N[C@@H](CCSC)C(=O)N[C@@H](CCCNC(=N)N)C(=O)N[C@@H](CCCCN)C(=O)N2)NC(=O)[C@H](CSSC[C@@H](C(=O)N[C@@H](CCCCN)C(=O)N[C@@H](Cc2ccc(O)cc2)C(=O)N[C@H](C(=O)N[C@@H](Cc2ccccc2)C(N)=O)C(C)C)NC(=O)[C@H](Cc2c[nH]c4ccccc24)NC(=O)[C@H](CCCCN)NC(=O)[C@H](Cc2cnc[nH]2)NC(=O)[C@H]([C@@H](C)O)NC(=O)[C@H](CCCNC(=N)N)NC(=O)[C@H](CO)NC3=O)NC(=O)[C@H](CCCCN)NC(=O)[C@H](CC(=O)O)NC(=O)[C@H](CC(N)=O)NC(=O)[C@H](CC(=O)O)NC(=O)[C@@H]2CCCN2C1=O [[NMeLeu5]GpTx-1(1-34)] | 26 | –
8 | CC[C@H](C)[C@@H]1NC(=O)[C@@H]2CSSC[C@@H]3NC(=O)[C@H](C(C)C)NC(=O)[C@H](CC(C)C)NC(=O)[C@H](CC(N)=O)NC(=O)[C@@H]4CCCN4C(=O)[C@H](CCCNC(=N)N)NC(=O)[C@H](CSSC[C@H](NC(=O)[C@@H](N)CC(=O)O)C(=O)N[C@@H](CC(C)C)C(=O)NCC(=O)N[C@@H](CCSC)C(=O)N[C@@H](CCSC)C(=O)N[C@@H](CCCNC(=N)N)C(=O)N[C@@H](CCCCN)C(=O)N2)NC(=O)[C@H](CSSC[C@@H](C(=O)N[C@@H](CCCCN)C(=O)N[C@@H](Cc2ccc(O)cc2)C(=O)N[C@H](C(=O)N[C@@H](Cc2ccccc2)C(N)=O)C(C)C)NC(=O)[C@H](Cc2c[nH]c4ccccc24)NC(=O)[C@H](CCCCN)NC(=O)[C@H](Cc2c[nH]cn2)NC(=O)[C@H]([C@@H](C)O)NC(=O)[C@H](CCCNC(=N)N)NC(=O)[C@H](CO)NC3=O)NC(=O)[C@H](CCCCN)NC(=O)[C@H](CC(=O)O)NC(=O)[C@H](CC(N)=O)NC(=O)[C@H](CC(=O)O)NC(=O)[C@@H]2CCCN2C1=O [SEQ ID NO: 268] (H-DCLGMMRKCIPDNDKCCRPNLVCSRTHKWCKYVF-NH2; disulfide 2-17, 9-23, 16-30) | – | 2
9 | CC[C@H](C)[C@@H]1NC(=O)[C@@H]2CSSC[C@@H]3NC(=O)[C@H](C(C)C)NC(=O)[C@H](CC(C)C)NC(=O)[C@H](CC(N)=O)NC(=O)[C@@H]4CCCN4C(=O)[C@H](CCCNC(=N)N)NC(=O)[C@H](CSSC[C@H](NC(=O)[C@@H](N)CC(=O)O)C(=O)N[C@@H](CC(C)C)C(=O)N[C@@H](CCCNC(=N)N)C(=O)N[C@@H](Cc4ccccc4)C(=O)N[C@@H](CCSC)C(=O)N[C@@H](CCCNC(=N)N)C(=O)N[C@@H](CCCCN)C(=O)N2)NC(=O)[C@H](CSSC[C@@H](C(=O)N[C@@H](CCCCN)C(=O)N[C@@H](Cc2ccc(O)cc2)C(=O)N[C@H](C(=O)N[C@@H](Cc2ccccc2)C(N)=O)C(C)C)NC(=O)[C@H](Cc2c[nH]c4ccccc24)NC(=O)[C@H](CCCCN)NC(=O)[C@H](Cc2c[nH]cn2)NC(=O)[C@H]([C@@H](C)O)NC(=O)[C@H](CCCNC(=N)N)NC(=O)[C@H](CO)NC3=O)NC(=O)[C@H](CCCCN)NC(=O)[C@H](CC(=O)O)NC(=O)[C@H](CC(N)=O)NC(=O)[C@H](CC(=O)O)NC(=O)[C@@H]2CCCN2C1=O [SEQ ID NO: 63] (H-DCLRFMRKCIPDNDKCCRPNLVCSRTHKWCKYVF-NH2; disulfide 2-17, 9-23, 16-30) | – | 3
